Molecules are shown by their SMILES. Values joined by “and” are separate entries in the source; they are usually repeats but may differ in a detail not shown here. Equal values may be shown once. “Also recorded” adds a separate entry of the source. Read-outs that look alike come from different tables or passages of the source.

The test system of data set [1] is autoluminescent M. tuberculosis H37Rv (AlRv). It counts as in vivo, Mycobacterium tuberculosis.
Data set [2] has the same test system. It counts as in vivo, Mycobacterium tuberculosis. The source holds these as a separate data set.
In a further data set the test system is M. tuberculosis. Particulars: stated without method or reference; cited from earlier work.
On the set-up of data set [3]: method as in Grewal et al., 2018; Grosset et al., 1992; Lyons et al., 2013. The conditions noted are these: mice, oral administration; ref Grewal et al., 2018; Grosset et al., 1992; Lyons et al., 2013; cited from earlier work.
The nature of data set [4]: Pharmacokinetics in lung via inhalation. Particulars: for duration lung concentration above in vitro MIC against M. tuberculosis: lung tissue, inhalation.
Data set [5] in a line: Pharmacokinetics in plasma via inhalation. The conditions noted are these: for duration plasma concentration exceeded in vitro MIC against M. tuberculosis / peak concentration in plasma / AUC(0-t) / AUC(0-inf) / Tmax: mice.
The next data set concerns AlRv. The experiment in a line: Published inhalation administration method using a syringe-like device in mice infected with AlRv. The class given is in vivo, Mycobacterium tuberculosis. The conditions noted are these: unpublished data. From the text: To date, four primary research reports, encompassing three inhalation administration models, have explored the detection of anti-TB drug efficacy through airway administration ([Garcia-Contreras et al., 2007]; [Garcia-Contreras et al., 2010]; [Gonzalez-Juarrero et al., 2012]; [Verma et al., 2013]). Among these studies, only two have employed murine models for their investigations. Supplementary Table S1 presents a comprehensive comparison of the advantages and disadvantages of each report relative to our study. Compared to these existing inhalation administration model, our innovative method achieves several improvements. Firstly, it is cost-effective and user-friendly, employing mice instead of larger animals. Secondly, it eliminates the need for anesthesia in mice during administration, simplifying the instrument operation. We also endeavored to utilize a published inhalation administration method using a syringe-like device in mice infected with AlRv. However, we encountered significant challenges in administering drugs daily due to the development of swollen throats in the mice ([Gonzalez-Juarrero et al., 2012]). […] Thirdly, the results obtained are relatively objective and repeatable, thereby minimizing the influence of human factor. Fourthly, the same treatment group, consisting of six mice, is administrated daily and simultaneously. […]

A short description of data set [6]: in vivo. Particulars: mouse, inhaled or intranasal.
Data set [7] in a line: in vivo. Particulars: mouse, inhaled or intranasal. The source holds these as a separate data set.
The mark [8] stands for this setting: […], RIF 2, INH 2, EMB 10 mg/mL, lungs D18.
The mark [9] stands for this setting: mice, RIF 2, INH 0.5, EMB 10 mg/mL.
Setting [10] is: lung, mice, single inhalation, RIF 2, INH 0.5, EMB 10 mg/mL.
[11] abbreviates: mouse, lung, inhaled or intranasal, AUC0-t, mice, single inhalation 25 min, RIF 2, INH 0.5, EMB 10 mg/mL.
Setting [12] is: mouse, lung, inhaled or intranasal, Tmax, mice, single inhalation 25 min, RIF 2, INH 0.5, EMB 10 mg/mL.
Setting [13] is: mouse, lung, inhaled or intranasal, time of peak concentration in lung post-administration, mice, single inhalation, RIF 2, INH 0.5, EMB 10 mg/mL.
[14] abbreviates: inhalation, RIF 2, INH 0.5, EMB 10 mg/mL.
Setting [15] is: single inhalation, RIF 2, INH 0.5, EMB 10 mg/mL.
[16] abbreviates: mouse, inhaled or intranasal, AUC0-t in plasma, inhalation, t = 4 h for INH and 24 h for RIF and EMB.
Where [17] appears, read: mouse, inhaled or intranasal, AUC0-t, single inhalation 25 min, RIF 2, INH 0.5, EMB 10 mg/mL, t = 4 h for INH, 24 h for RIF and EMB.
[18] abbreviates: mouse, inhaled or intranasal, AUC0-∞ in plasma, inhalation.
[19] abbreviates: mouse, inhaled or intranasal, AUC0-∞, single inhalation 25 min, RIF 2, INH 0.5, EMB 10 mg/mL.
Setting [20] is: mouse, inhaled or intranasal, time of peak concentration in plasma post-administration, single inhalation, RIF 2, INH 0.5, EMB 10 mg/mL, first sampling point 5 min.

As usually defined, the half-life is how long it takes for the measured level to halve. What is called AUC(0-t) is the area under the concentration-time curve up to a stated or last time point. Low values mean less exposure, high ones more exposure. For orientation: AUC(0-inf) means the area under the concentration-time curve extrapolated to infinity. Low values mean less exposure, high ones more exposure. Usually Tmax stands for the time at which the peak concentration occurs. For `CC[C@@H](CO)NCCN[C@@H](CC)CO` [EMB, ethambutol], the “lung CFUs compared with BT group” value is “almost similar” in data set [1] (setting [8]) and “nearly identical” in data set [2] (in vivo). Besides, the “lung RLUs compared with BT group” value in data set [1] (setting [8]) is listed as “nearly identical”; in data set [2] (in vivo) it was “equivalent”. Moreover, in data set [2] (in vivo), the “live RLUs compared with solvent group” value was “significantly lower”. The “log10CFUs/lung difference to solvent group” value (“log10CFUs/lung difference” below) in data set [2] (in vivo) is recorded as “exceeding 1.5 log10CFUs/lung”. Moreover, in [2] (in vivo), the “lowest inhaled concentration showing anti-M. tuberculosis activity in vivo” value is on record as 0.625 mg/mL. In addition, the “lung CFUs compared with solvent control” value in data set [2] (in vivo) is on record as “significantly reduced”. The “lung RLUs compared with solvent group” value in [2] (in vivo) was “less significant differences”. In the data set on M. tuberculosis, the “in vitro minimum inhibitory concentration (MIC)” value is 2.00 µg/mL. Besides, the “time of highest plasma concentration post-administration” value in data set [3] is on record as 1.33 h. Further, in data set [4] (setting [9]), the “duration lung concentration above in vitro MIC against M. tuberculosis” value (shortened to “duration lung concentration above”) is on record as approximately 10 h. Also, the “peak concentration in lung” value in data set [4] (setting [10]) came to 10.94 ± 1.63 µg/g. Besides, the half-life in [4] (mouse, lung, inhaled or intranasal) was 274 min; in data set [5] (mouse, inhaled or intranasal) it was 170 min. For the same molecule, the area under the curve AUC(0-t) in data set [4] (setting [11]) was 47300 ng·h/mL; in data set [5] (setting [16]), 103000 ng·h/mL; in [5] (setting [17]), 103000 ng·h/mL. Moreover, the AUC(0-inf) in data set [4] (mouse, lung, inhaled or intranasal, AUC0-∞, mice, single inhalation 25 min, RIF 2, INH 0.5, EMB 10 mg/mL) was 48700 ng·h/mL; in data set [5] (setting [18]) it was 103000 ng·h/mL; in [5] (setting [19]), 103000 ng·h/mL. In addition, the Tmax in data set [4] (setting [12]) was 4.8 min; in [4] (setting [13]) it was not above 5 min; in data set [5] (mouse, inhaled or intranasal, Tmax, single inhalation 25 min, RIF 2, INH 0.5, EMB 10 mg/mL) it was 4.8 min; in data set [5] (setting [20]), not above 5 min. Further, in data set [5] (setting [14]), the “duration plasma concentration exceeded in vitro MIC against M. tuberculosis” value (“duration plasma concentration exceeded” for short) is on record as approximately 14 h. The “peak concentration in plasma” value in [5] (setting [15]) is 28.64 ± 16.80 µg/mL and 28.64 ± 16.8 µg/mL.

As to `NNC(=O)c1ccncc1` [INH, isoniazid], the “lung CFUs compared with BT group” value in [1] (setting [8]) and in data set [2] (in vivo) was “lower” each time. In addition, the “lung RLUs compared with BT group” value in data set [1] (setting [8]) was “slightly lower”; in [2] (in vivo), “comparable”. Besides, the “colonies on plates of lung suspension” value in data set [2] ([…], only a fraction of the lung suspension plated) is “no colonies were observed”. Further, the “log10CFUs/lung difference” value in [2] (in vivo) is on record as “exceeding 1.5 log10CFUs/lung”. Further, the “log10RLUs/lung difference to solvent group” value in [2] (in vivo) is reported as “exceeding 1.5 log10RLUs/lung”. Moreover, in data set [2] (in vivo), the “lowest inhaled concentration showing anti-M. tuberculosis activity in vivo” value was found to be 0.5 mg/mL. In addition, the “lung RLUs compared with solvent group” value in data set [2] (in vivo) was “similar”. Moreover, in the data set with AlRv, the “RLUs compared with untreated control and the same mice the day before administration” value was “reduced RLUs”. For the same molecule, in the data set on M. tuberculosis, the “in vitro minimum inhibitory concentration (MIC)” value is 0.13 µg/mL. In addition, the “time of highest plasma concentration post-administration” value in [3] is 0.25 h. Besides, the Tmax in “in vivo [6]” was 4.8 min; in data set [4] (setting [12]) it was 15 min; in data set [4] (setting [13]), not above 15 min; in [5] (setting [20]), not above 5 min. Also, the “duration lung concentration above” value in [4] (setting [9]) is listed as approximately 0.5 h. Besides, the “concentration in the lungs 30 min post-administration” value in data set [4] (lung, mice, inhalation 0.5 mg/mL, 30 min post-administration) is on record as “nearly undetectable; also recorded: near-zero”. The “peak concentration in lung” value in [4] (setting [10]) is 2.52 ± 0.81 µg/g. Besides, the exposure AUC(0-t) stood at 340 ng·h/mL in data set [4] (mouse, lung, inhaled or intranasal, 0.5 mg/mL, AUC0-t in the lungs, mice, inhalation 0.5 mg/mL); 337 ng·h/mL in data set [4] (setting [11]); 1570 ng·h/mL in [5] (setting [16]); 1570 ng·h/mL in data set [5] (setting [17]). Besides, in data set [5] (setting [14]), the “duration plasma concentration exceeded” value is approximately 3 h. Also, the “peak concentration in plasma” value in data set [5] (setting [15]) stood at 2.66 ± 0.29 µg/mL. In addition, the area under the curve AUC(0-inf) in data set [5] (setting [18]) and in [5] (setting [19]) was 1790 ng·h/mL in each case.

For the molecule `CO[C@H]1/C=C/O[C@@]2(C)Oc3c(C)c(O)c4c(O)c(c(/C=N/N5CCN(C)CC5)c(O)c4c3C2=O)NC(=O)/C(C)=C\C=C\[C@H](C)[C@H](O)[C@@H](C)[C@@H](O)[C@@H](C)[C@H](OC(C)=O)[C@@H]1C` [RIF, rifampicin], the “lung CFUs compared with BT group” value in [1] (in vivo) is listed as “higher”. Moreover, in data set [2] (in vivo), the “bactericidal activity by lung suspension RLU and CFU” value is reported as “failed to demonstrate bactericidal activity”; the “log10CFUs/lung difference” value is on record as “exceeding 1.5 log10CFUs/lung”; the “log10RLUs/lung difference to solvent group” value is reported as “exceeding 1.5 log10RLUs/lung”; the “lowest inhaled concentration showing anti-M. tuberculosis activity in vivo” value is 0.5 mg/mL. Further, in [2] (in vivo), the “lung CFUs compared with solvent group” value is “slightly significantly lower; also recorded: approximately comparable” and the “lung RLUs compared with solvent group” value is “comparable”. Further, the “in vitro minimum inhibitory concentration (MIC)” value with M. tuberculosis was 0.06 µg/mL. In the data set “in vivo [6]” (AUC0-t in plasma), the AUC(0-t) turned out to be 19000 ng·h/mL. The same molecule yielded an AUC(0-inf) in the data set “in vivo [6]” (AUC0-∞ in plasma) of 21000 ng·h/mL. Also, the time to peak (Tmax) in the data set “in vivo [6]” (Tmax) was found to be 4.8 min. Moreover, the Tmax in the data set “in vivo [6]” (time of peak concentration in plasma post-administration) is 5 min. In addition, the time to peak (Tmax) in “in vivo [7]” (Tmax) stood at 4.8 min. Moreover, in “in vivo [7]” (time of peak concentration in lung post-administration), the Tmax was 5 min. In [4] (setting [9]), the “duration lung concentration above” value is recorded as “approximately 24 h”. Further, the “duration plasma concentration exceeded” value in data set [5] (setting [14]) is on record as “approximately 24 h”.
